Laboratory results reported in ChEMBL document CHEMBL1123187, “3-Hydroxy-3-methylglutaryl-coenzyme A reductase inhibitors. 5. 6-(Fluoren-9-yl)- and 6-(fluoren-9-ylidenyl)-3,5-dihydroxyhexanoic acids and their lactone derivatives” (J Med Chem, 1986).

Columns and labels:
[1] = target: T1, 3-hydroxy-3-methylglutaryl-coenzyme A reductase (Rattus norvegicus) (UniProt P51639); assay: compound was tested for its ability to inhibit solubilized, purified rat liver HMG-CoA reductase, relative to compactin(100)
T1 sequence (whole entry): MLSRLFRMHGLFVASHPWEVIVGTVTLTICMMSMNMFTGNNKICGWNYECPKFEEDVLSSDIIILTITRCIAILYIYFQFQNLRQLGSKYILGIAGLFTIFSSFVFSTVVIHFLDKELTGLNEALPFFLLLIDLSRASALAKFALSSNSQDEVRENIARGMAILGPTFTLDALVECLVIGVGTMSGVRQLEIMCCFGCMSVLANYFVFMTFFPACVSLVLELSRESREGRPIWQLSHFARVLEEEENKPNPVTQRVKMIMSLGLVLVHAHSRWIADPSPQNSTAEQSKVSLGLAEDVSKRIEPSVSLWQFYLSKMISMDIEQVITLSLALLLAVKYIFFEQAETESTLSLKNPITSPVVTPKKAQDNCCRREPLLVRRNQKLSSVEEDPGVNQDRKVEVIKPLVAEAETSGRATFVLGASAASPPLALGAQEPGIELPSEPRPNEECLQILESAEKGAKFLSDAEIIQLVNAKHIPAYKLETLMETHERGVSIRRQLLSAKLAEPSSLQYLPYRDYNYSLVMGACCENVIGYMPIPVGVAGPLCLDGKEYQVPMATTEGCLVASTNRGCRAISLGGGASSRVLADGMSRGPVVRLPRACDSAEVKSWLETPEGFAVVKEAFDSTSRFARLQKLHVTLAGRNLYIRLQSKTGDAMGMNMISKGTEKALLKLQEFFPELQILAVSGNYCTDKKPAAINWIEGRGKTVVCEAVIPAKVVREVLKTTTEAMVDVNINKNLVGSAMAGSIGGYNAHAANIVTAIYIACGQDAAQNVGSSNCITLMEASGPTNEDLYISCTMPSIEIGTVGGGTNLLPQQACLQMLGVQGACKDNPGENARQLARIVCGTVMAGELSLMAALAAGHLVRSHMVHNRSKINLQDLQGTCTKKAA

[2] = target: T1, 3-hydroxy-3-methylglutaryl-coenzyme A reductase (Rattus norvegicus); assay: Compound was tested for its ability to inhibit solubilized, purified rat liver HMG-CoA reductase, relative to compactin(100)
[3] = target: T2, 3-hydroxy-3-methylglutaryl-coenzyme A reductase (Rattus norvegicus, UniProt P51639); assay: Compound was tested in vitro for its ability to inhibit rat liver HMG-CoA reductase
T2 sequence (P51639 whole entry): T1 sequence (whole entry)

SMILES	Relative potency [1]	Relative potency [2]	IC50 [3] [nM]
O=C1C[C@H](O)C[C@@H](/C=C/c2c(Cl)cc(Cl)cc2-c2ccccc2)O1	26		
O=C1C[C@H](O)CC(CC2c3cc(F)ccc3-c3cc(Cl)cc(Cl)c32)O1 (stereo partly specified)		14	85
Cc1cc(C)c2c(c1)-c1cc(C)cc(C)c1C2=C[C@@H]1C[C@@H](O)CC(=O)O1		1.7	830
O=C1C[C@H](O)C[C@@H](C=C2c3ccccc3-c3ccccc32)O1		1.5	
Cc1cc(C)c2c(c1)-c1ccccc1/C2=C\[C@@H]1C[C@@H](O)CC(=O)O1		1.9	750
Cc1cc(C)cc(-c2cc(C)cc(C)c2/C=C/[C@@H]2C[C@@H](O)CC(=O)O2)c1	80		
O=C1C[C@H](O)C[C@@H](/C=C/c2c(Cl)cc(Cl)cc2-c2ccc(F)cc2)O1	100		
O=C1C[C@H](O)C[C@@H](/C=C/c2ccccc2-c2ccccc2)O1	0.63		
